Where two headings read alike, the source gives them in different places. Numbered stars: 1 amine (or outer) side, 2 acyl side, 3 side chain; on linkers, the order of the positions; unused ones are H or OH. Peptide text beside a SMILES is read from it. CO = O=C([*:1])[*:2]
Key:
[1] = tested on: PA28-inactivating protein; assay: Effect of protease inhibitors on peptidase activity (Z-Leu-Arg-MNA hydrolysis) of PA28-inactivating protein; assay type: biochemical, bovine
Description: (§1) Assay for PA28-inactivating activity. The inactivation of PA28 was assessed by measuring residual PA28 activity after preincubation of purified PA28 with the inactivating protein. The preincubation contained purified bovine red blood cell PA28 (0.2 μg), 100 mM MES buffer, pH 5.2, 2 mM DTT, and inactivating protein or other factors, as described in this example, in a final volume of 15 μl. After preincubation at […] for 10 min., the reaction was stopped by addition of 1.0 ml of a solution containing 50 mM Trios-HCl, pH 8.0, 1 mM DTT, and 50 μM Suc-LeuLeu-Val-Tyr-AMC (or other proteasome substrate). […] The assays consisted of 50 mM MES buffer, pH 5.2, 1 mM DTT, 50 μM substrate, and 50 μl of column fractions in a final volume of 1.0 ml. Reactions were carried out at 30° C. and the release of free MNA (or other reporter group) was monitored directly by fluorescence. 1.0 unit of activity is defined as the increase in product concentration of 1.0 nM/min.

[2] = tested on: PA28-inactivating protein; assay: Effect of protease inhibitors on PA28-inactivating activity; assay type: biochemical, bovine
Description: as §1

20S proteasome = assay: Assay for PA700 activity (ATP-dependent activation of proteasome); assay type: biochemical, bovine; details: for ability of nucleotide to promote proteasome activation by PA700: in place of ATP
Description: Assay for PA700 activity. PA700 activity was assayed by measuring the increase in proteasome hydrolysis of the synthetic peptide Suc-Leu-Leu-Val-Tyr-AMC after preincubation of the two components in the presence of ATP. The standard preincubation solution consisted of 45 mM Tris-HCl, pH 7.5, 5 mM DTT, 60 μM ATP, 500 μM MgCl2, 0.3 μg purified proteasome, PA700 as indicated in specific experiments, and any other component as specified, in a final volume of 50 μl. This solution was preincubated at 37° C. for 45 min. The preincubation was ended by the addition of 1.0 ml of a solution containing 50 mM Tris-HCl, pH 8.0, 1 mM DTT, and 50 μM Suc-Leu-Leu-Val-Tyr-AMC. The rate of hydrolysis of the substrate was determined directly by fluorescence as described previously. Routine control assays were conducted in parallel and consisted of the complete procedure but without PA700. […] PA700 activity is defined as the increase in proteasome activity between the two conditions.

[3] = tested on: PA28-inactivating protein; assay: Hydrolysis of synthetic peptides and proteins by PA28-inactivating protein; assay type: biochemical, bovine; details: 0.05 μg enzyme, 50 μM substrate, 50 mM MES pH 5.2, 30° C.; 1.0 unit = 1.0 nM/min product
Description: as §1

[4] = tested on: T1, proteasome activation by PA28; assay: Inhibition of PA28-activated proteasome by carboxy-terminal peptide; assay type: biochemical; details: kind of activity not specified further
T1 construct: from tissue
Description: Proteasome activity in the absence of PA28 was 1.2 units/assays. Assays contained 0.5 μg of proteasome and 1 μg of PA28.
Therefore, this peptide or a compound with similar properties may be used to block the action of the proteasome in intact cells. Such a compound or analogs having similar binding activity may be used to control accelerated rates of intracellular protein degradation. The peptide has the sequence: Acetyl-KNFEKLKKPRGETKGMIY (SEQ ID NO. 3). The N-terminal lysine may be acetylated if needed for stability. […] Therefore, the C-terminal Ile-Tyr amino acids or their functional equivalents appear to be important for binding of the 18-mer to the proteasome and for inhibition of the activation of the proteasome by activating factors PA28 and PA700. An equivalent of the 18-mer may comprise less than 18 amino acids or may comprise functionally equivalent amino acid replacements which allow similar binding activity.

PA28 = assay: Assay for PA28-inactivating activity (residual PA28 activity after preincubation with peptidase); assay type: biochemical, bovine
Description: as §1

[5] = inhibitor 1 mM, preincubated 10 min at 30° C., Z-Leu-Arg-MNA
[6] = inhibitor 1 mM, preincubated 10 min at 30° C.
[7] = inhibitor 2 μM, preincubated 10 min at 30° C., Z-Leu-Arg-MNA

For `O=c1oc(Cl)c(Cl)c2ccccc12` [3,4-Dichloroisocoumarin, 3,4-dichloroisocoumarin], which “effect on the purified PA28-inactivating protein (PA28-inactivating activity and Z-Leu-Arg-MNA hydrolysis), in words” value (“effect … in words” for short) [1] is on record?
Its value is “had no effect”.

And the “Peptidase Activity (% Inhibition)” value [1, 5]?
The value was 0 % Inhibition.

What about the “PA28-Inactivating Activity (% Inhibition)” value [2, 6] of the same molecule?
Its value is 0 % Inhibition.

`Nc1ncnc2c1ncn2[C@@H]1O[C@H](COP(=O)(O)OP(=O)(O)O)[C@@H](O)[C@H]1O` [ADP] was tested. Which “ability of nucleotide to promote proteasome activation by PA700” value (“ability of nucleotide” below) (20S proteasome) did it give?
The value was “Neither ADP, AMP, adenosine, nor PPi promoted proteasome activation”.

For `Nc1ncnc2c1ncn2[C@@H]1O[C@H](COP(=O)(O)O)[C@@H](O)[C@H]1O` [AMP], which “ability of nucleotide” value (20S proteasome) is on record?
Its value is “Neither ADP, AMP, adenosine, nor PPi promoted proteasome activation”.

How did the “ATP concentration for maximal proteasome activation by PA700” value (20S proteasome) turn out when `Nc1ncnc2c1ncn2[C@@H]1O[C@H](COP(=O)(O)OP(=O)(O)OP(=O)(O)O)[C@@H](O)[C@H]1O` [ATP] was run?
The value was “approximately 60 μM”.

What does the source list for `NCCc1ccc(S(=O)(=O)F)cc1` [Aminoethylbenzenesulfonylfluoride, aminoethylbenzenesulfonylfluoride]?
effect on the purified PA28-inactivating protein (PA28-inactivating activity and Z-Leu-Arg-MNA hydrolysis), in words [1]: had no effect; Peptidase Activity (% Inhibition) [1, 5]: 0 % Inhibition; PA28-Inactivating Activity (% Inhibition) [2, 6]: 0 % Inhibition

Which “effect … in words” value [1] does the source give for `CC(C)[C@H](NC(=O)[C@H](CCCNC(=N)N)NC(=O)N[C@@H](Cc1ccccc1)C(=O)O)C(=O)N[C@H](C=O)CCCNC(=N)N` [Antipain] ({Phe-CO}-Arg-Val-Arg-aldehyde) here?
The value was “inhibited the PA28-inactivating protein at concentrations in the μM range”.

What about the “Peptidase Activity (% Inhibition)” value [1, 7] of the same molecule?
Its value is 88 % Inhibition.

And the “PA28-Inactivating Activity (% Inhibition)” value ([2]; inhibitor 2 μM, preincubated 10 min at 30° C.)?
The value was 90 % Inhibition.

How did the “Peptidase Activity (% Inhibition)” value [1, 7] turn out when `CC(C)C[C@H](NC(=O)[C@@H](O)[C@H](N)Cc1ccccc1)C(=O)O` [Bestatin] was run?
Its value is 19 % Inhibition.

Which results are given for `Nc1ccn([C@@H]2O[C@H](COP(=O)(O)OP(=O)(O)OP(=O)(O)O)[C@@H](O)[C@H]2O)c(=O)n1` [CTP]?
concentration required for proteasome activation by PA700 relative to ATP (20S proteasome; higher than ATP): 100 fold; ability of nucleotide to promote proteasome activation by PA700 (20S proteasome): could also activate the proteasome

How did the “effect … in words” value [1] turn out when `O=C(O)CI` [Iodoacetate] was run?
Its value is “inhibited each activity”.

And the “Peptidase Activity (% Inhibition)” value ([1]; 10 min, 100 µM)?
Its value is 83 % Inhibition.

What about the “effect on PA28-inactivating activity of bovine liver extract” value [2] of the same molecule?
Its value is “inhibited”.

What about the “PA28-Inactivating Activity (% Inhibition)” value ([2]; 10 min, 100 µM) of the same molecule?
Its value is 93 % Inhibition.

What does the source list for `CC(=O)N[C@@H](CC(C)C)C(=O)N[C@@H](CC(C)C)C(=O)N[C@H](C=O)CCCNC(=N)N` [Leupeptin]?
effect on the purified PA28-inactivating protein (PA28-inactivating activity and Z-Leu-Arg-MNA hydrolysis), in words [1]: inhibited the PA28-inactivating protein at concentrations in the μM range; Peptidase Activity (% Inhibition) ([1]; inhibitor 1 μM, preincubated 10 min at 30° C., Z-Leu-Arg-MNA): 100 % Inhibition; PA28-Inactivating Activity (% Inhibition) ([2]; inhibitor 1 μM, preincubated 10 min at 30° C.): 100 % Inhibition; effect on PA28-inactivating activity of bovine liver extract ([2]; preliminary characterization, crude liver extract): inhibited

With `O=P(O)(O)OP(=O)(O)O` [PPi] as the molecule, how does the “ability of nucleotide” value (20S proteasome) read?
The value was “Neither ADP, AMP, adenosine, nor PPi promoted proteasome activation”.

Which “hydrolysis by PA28-inactivating protein” value [3] does the source give for `COc1cc(NC(=O)[C@H](Cc2ccccc2)NC(=O)[C@H](CC(C)C)NC(=O)[C@H](Cc2ccccc2)NC(=O)CCC(=O)O)cc2ccccc12` [Suc--Phe--Leu--Phe--MNA] here?
Its value is 0 UNITS/μg.

How did the “hydrolysis by PA28-inactivating protein” value [3] turn out when `Cc1cc(=O)oc2cc(NC(=O)[C@H](Cc3ccc(O)cc3)NC(=O)CCC(=O)O)ccc12` [Suc--Tyr--AMC] was run?
The value was 0 UNITS/μg.

With `Cc1ccc(S(=O)(=O)N[C@@H](CCCCN)C(=O)CCl)cc1` [TLCK] as the molecule, how does the “Peptidase Activity (% Inhibition)” value ([1]; 10 min, 50 µM) read?
The value was 88 % Inhibition.

What does the source list for `Cc1ccc(S(=O)(=O)N[C@@H](Cc2ccccc2)C(=O)CCl)cc1` [TPCK]?
Peptidase Activity (% Inhibition) ([1]; inhibitor 50 μM, preincubated 10 min at 30° C., Z-Leu-Arg-MNA): 0 % Inhibition; PA28-Inactivating Activity (% Inhibition) ([2]; inhibitor 50 μM, preincubated 10 min at 30° C.): 0 % Inhibition

Which “hydrolysis by PA28-inactivating protein” value [3] does the source give for `COc1cc(NC(=O)[C@H](CCCNC(=N)N)NC(=O)OCc2ccccc2)cc2ccccc12` [Z--Arg--MNA] here?
Its value is 0 UNITS/μg.

`O=C(CNC(=O)OCc1ccccc1)NCC(=O)N[C@@H](Cc1ccccc1)C(=O)Nc1ccc2ccccc2c1` [Z--Gly--Gly--Phe--βNA] (HELM PEPTIDE1{[O=C(OCc1ccccc1)[*:2]].G.G.F.[c1ccc2cc(N[*:1])ccc2c1]}$$$$V2.0) was tested. Which “hydrolysis by PA28-inactivating protein” value [3] did it give?
The value was 0 UNITS/μg.

Which “hydrolysis by PA28-inactivating protein” value [3] does the source give for `COc1cc(NC(=O)[C@H](CCCNC(=N)N)NC(=O)[C@@H]2CCCN2C(=O)CNC(=O)OCc2ccccc2)cc2ccccc12` [Z--Gly--Pro--Arg--MNA] here?
The value was 13 UNITS/μg.

For `COc1cc(NC(=O)[C@H](CCCNC(=N)N)NC(=O)[C@H](CC(C)C)NC(=O)OCc2ccccc2)cc2ccccc12` [Z--Leu--Arg--MNA, Z-Leu-Arg-MNA], which “hydrolysis by PA28-inactivating protein” value [3] is on record?
The value was 98 UNITS/μg.

Which “hydrolysis by PA28-inactivating protein” value [3] does the source give for `COc1cc(NC(=O)[C@H](CCCCN)NC(=O)[C@H](CC(C)C)NC(=O)[C@H](CC(C)C)NC(=O)OCc2ccccc2)cc2ccccc12` [Z--Leu--Leu--Lys--MNA] here?
The value was 19 UNITS/μg.

For `C[C@H](NC(=O)[C@H](Cc1ccccc1)NC(=O)OCc1ccccc1)C(=O)C=[N+]=[N-]` [Z--Phe--Ala--CHN2], which “Peptidase Activity (% Inhibition)” value ([1]; inhibitor 15 μM, preincubated 10 min at 30° C., Z-Leu-Arg-MNA) is on record?
Its value is 85 % Inhibition.

`COc1cc(NC(=O)[C@H](Cc2ccc(O)cc2)NC(=O)[C@H](CO)NC(=O)OCc2ccccc2)cc2ccccc12` [Z--Ser--Tyr--MNA] was tested. Which “hydrolysis by PA28-inactivating protein” value [3] did it give?
The value was 0 UNITS/μg.

With `COc1cc(NC(=O)[C@H](CCCNC(=N)N)NC(=O)[C@H](CC(C)C)NC(=O)[C@@H](NC(=O)OCc2ccccc2)C(C)C)cc2ccccc12` [Z--Val--Leu--Arg--MNA, Z-Val-Leu-Arg-MNA] as the molecule, how does the “hydrolysis by PA28-inactivating protein” value [3] read?
Its value is 28 UNITS/μg.

`Nc1ncnc2c1ncn2[C@@H]1O[C@H](CO)[C@@H](O)[C@H]1O` [adenosine] was tested. Which “ability of nucleotide” value (20S proteasome) did it give?
The value was “Neither ADP, AMP, adenosine, nor PPi promoted proteasome activation”.

Which results are given for Chymostatin?
effect on the purified PA28-inactivating protein (PA28-inactivating activity and Z-Leu-Arg-MNA hydrolysis), in words [1]: inhibited the PA28-inactivating protein at concentrations in the μM range; Peptidase Activity (% Inhibition) ([1]; inhibitor 5 μM, preincubated 10 min at 30° C., Z-Leu-Arg-MNA): 83 % Inhibition

Ile-Tyr was tested. Which “activity of the dipeptide by itself” value [4] did it give?
Its value is “very weak activity”.

For trypsin, which “effect of peptidase or protease on PA28 activity” value (from here on “effect of peptidase or protease”) (PA28) is on record?
The value was “rapidly inactivated PA28”.

B1: Carboxypeptidase B: Carboxypeptidase B from bovine pancreas (Sigma C7261) (protein, UniProt P00732 111-417, looked up)
Carboxypeptidase B: TTGHSYEKYNNWETIEAWTEQVASENPDLISRSAIGTTFLGNTIYLLKVGKPGSNKPAVFMDCGFHAREWISPAFCQWFVREAVRTYGREIHMTEFLDKLDFYVLPVVNIDGYIYTWTTNRMWRKTRSTRAGSSCTGTDLNRNFDAGWCSIGASNNPCSETYCGSAAESEKESKAVADFIRNHLSSIKAYLTIHSYSQMMLYPYSYDYKLPKNNVELNTLAKGAVKKLASLHGTTYTYGPGASTIYPASGGSDDWAYDQGIKYSFTFELRDKGRYGFVLPESQIQPTCEETMLAIKYVTSYVLEHLY
For B1, which “effect of peptidase or protease” value (PA28) is on record?
Its value is “each inactivated PA28 without detectably altering its molecular weight on SDS-PAGE”.

B2: Carboxypeptidase Y: Carboxypeptidase Y from yeast (Boehringer, 1111914) (protein, UniProt P00729 112-532, looked up)
Carboxypeptidase Y: KIKDPKILGIDPNVTQYTGYLDVEDEDKHFFFWTFESRNDPAKDPVILWLNGGPGCSSLTGLFFELGPSSIGPDLKPIGNPYSWNSNATVIFLDQPVNVGFSYSGSSGVSNTVAAGKDVYNFLELFFDQFPEYVNKGQDFHIAGESYAGHYIPVFASEILSHKDRNFNLTSVLIGNGLTDPLTQYNYYEPMACGEGGEPSVLPSEECSAMEDSLERCLGLIESCYDSQSVWSCVPATIYCNNAQLAPYQRTGRNVYDIRKDCEGGNLCYPTLQDIDDYLNQDYVKEAVGAEVDHYESCNFDINRNFLFAGDWMKPYHTAVTDLLNQDLPILVYAGDKDFICNWLGNKAWTDVLPWKYDEEFASQKVRNWTASITDEVAGEVKSYKHFTYLRVFNGGHMVPFDVPENALSMVNEWIHGGFSL
B2 was tested. Which “effect of peptidase or protease” value (PA28) did it give?
The value was “each inactivated PA28 without detectably altering its molecular weight on SDS-PAGE”.
